Assay results taken from US10292394B2, “Herbicidal compounds” (Syngenta Participations AG, priority 2015, dated 2019).

Columns and labels:
Experiment in all cases: Post-emergence efficacy, glasshouse pot test
Type in all cases: in vivo
Details in all cases: post-emergence application, evaluated after 13 days
[1] = system: Amaranthus retoflexus (AMARE)
Description: (§1) B1 Post-Emergence Efficacy Seeds of a variety of test species are sown in standard soil in pots:—Solanum nigrum (SOLNI), Amaranthus retoflexus (AMARE), Setaria faberi (SETFA), Alopecurus myosuroides (ALOMY), Echinochloa crus-galli (ECHCG), Ipomoea hederacea (IPOHE), Lolium perenne (LOLPE). After 8 days cultivation (post-emergence) under controlled conditions in a glasshouse (at 24/16° C., day/night; 14 hours light; 65% humidity), the plants are sprayed with an aqueous spray solution derived from the formulation of the technical active ingredient in acetone/water (50:50) solution containing 0.5% Tween 20 (polyoxyethylene sorbitan monolaurate, CAS RN 9005-64-5). Compounds are applied at 1000 g/ha and 250 g/ha. The test plants are then grown in a glasshouse under controlled conditions in a glasshouse (at 24/16° C., day/night; 14 hours light; 65% humidity) and watered twice daily. After 13 days, the test is evaluated for the percentage damage caused to the plant. The biological activities are assessed on a five point scale (5=80-100%; 4=60-79%; 3=40-59%; 2=20-39%; 1=0-19%).

[2] = system: Echinochloa crus-galli (ECHCG)
Description: as §1

[3] = system: Ipomoea hederacea (IPOHE)
Description: as §1

Lolium perenne (LOLPE) = system: Lolium perenne (LOLPE)
Description: as §1

Setaria faberi (SETFA) = system: Setaria faberi (SETFA)
Description: as §1

Solanum nigrum (SOLNI) = system: Solanum nigrum (SOLNI)
Description: as §1

SMILES | percentage damage caused to the plant, five point scale, AMARE ([1]; 250 g/ha) | percentage damage caused to the plant, five point scale, AMARE ([1]; 1000 g/ha) | percentage damage caused to the plant, five point scale, ECHCG ([2]; 250 g/ha) | percentage damage caused to the plant, five point scale, ECHCG ([2]; 1000 g/ha) | percentage damage caused to the plant, five point scale, IPOHE ([3]; 250 g/ha) | percentage damage caused to the plant, five point scale, IPOHE ([3]; 1000 g/ha) | percentage damage caused to the plant, five point scale, LOLPE (Lolium perenne (LOLPE); 250 g/ha) | percentage damage caused to the plant, five point scale, LOLPE (Lolium perenne (LOLPE); 1000 g/ha) | percentage damage caused to the plant, five point scale, SETFA (Setaria faberi (SETFA); 250 g/ha) | percentage damage caused to the plant, five point scale, SETFA (Setaria faberi (SETFA); 1000 g/ha) | percentage damage caused to the plant, five point scale, SOLNI (Solanum nigrum (SOLNI); 250 g/ha) | percentage damage caused to the plant, five point scale, SOLNI (Solanum nigrum (SOLNI); 1000 g/ha)
C#CCn1c(=O)c(-c2c(Cl)ccc(Cl)c2OCc2cnc(Cl)s2)c(O)c2nccnc21 [Compound 9.19, 7-[3,6-dichloro-2-[(2-chlorothiazol-5-yl)methoxy]phenyl]-8-hydroxy-5-prop-2-ynyl-pyrido[2,3-b]pyrazin-6-one] | 5 (5=80-100%) | 5 (5=80-100%) | 5 (5=80-100%) | 5 (5=80-100%) | 5 (5=80-100%) | 5 (5=80-100%) | 5 (5=80-100%) | 5 (5=80-100%) | 5 (5=80-100%) | 5 (5=80-100%) | 5 (5=80-100%) | 5 (5=80-100%)
C#CCn1c(=O)c(-c2c(Cl)ccc(Cl)c2OCc2cnc(Cl)s2)c(O)c2cccnc21 [Compound 1.19] | 4 (4=60-79%) | 5 (5=80-100%) | 3 (3=40-59%) | 5 (5=80-100%) | 5 (5=80-100%) | 5 (5=80-100%) | 5 (5=80-100%) | 5 (5=80-100%) | 4 (4=60-79%) | 5 (5=80-100%) | 5 (5=80-100%) | 5 (5=80-100%)
O=c1c(-c2c(Cl)ccc(Cl)c2OCc2cnc(Cl)s2)c(O)c2nccnc2n1CC(F)F [Compound 11.19] | 5 (5=80-100%) | 5 (5=80-100%) | 5 (5=80-100%) | 4 (4=60-79%) | 5 (5=80-100%) | 5 (5=80-100%) | 5 (5=80-100%) | 5 (5=80-100%) | 4 (4=60-79%) | 5 (5=80-100%) | 5 (5=80-100%) | 5 (5=80-100%)
C#CCn1c(=O)c(-c2c(Cl)ccc(Cl)c2OCc2cnc(Cl)s2)c(O)c2c(OC)ccnc21 [Compound 17.19] | 5 (5=80-100%) | 5 (5=80-100%) | 5 (5=80-100%) | 5 (5=80-100%) | 5 (5=80-100%) | 5 (5=80-100%) | 4 (4=60-79%) | 5 (5=80-100%) | 5 (5=80-100%) | 5 (5=80-100%) | 5 (5=80-100%) | 5 (5=80-100%)
COc1ccnc2c1c(O)c(-c1c(Cl)ccc(Cl)c1OCc1cnc(Cl)s1)c(=O)n2CC(F)F [Compound 19.19] | 5 (5=80-100%) | 5 (5=80-100%) | 5 (5=80-100%) | 5 (5=80-100%) | 5 (5=80-100%) | 5 (5=80-100%) | 4 (4=60-79%) | 5 (5=80-100%) | 5 (5=80-100%) | 5 (5=80-100%) | 5 (5=80-100%) | 5 (5=80-100%)
O=c1c(-c2c(Cl)ccc(Cl)c2OCc2cnc(Cl)s2)c(O)c2cccnc2n1CC(F)F [Compound 3.19] | 5 (5=80-100%) | 5 (5=80-100%) | 3 (3=40-59%) | 4 (4=60-79%) | 5 (5=80-100%) | 5 (5=80-100%) | 4 (4=60-79%) | 5 (5=80-100%) | 4 (4=60-79%) | 5 (5=80-100%) | 5 (5=80-100%) | 5 (5=80-100%)
